# Source: US12091425B2 (AMGEN INC., priority 2016, dated 2024)
# Target: T1, Mcl-1/Bim interaction, recombinant human Mcl-1 (171-327) (Homo sapiens, UniProt Q07820)
# T1 construct: made in house
# Experiment: Cell free Mcl-1: Bim Affinity Assay (Mcl-1 HTRF)
# Format: binding
# Conditions: TR-FRET, 0.1 nM Mcl-1 (171-327), 0.05 nM biotin-Bim (51-76)
# Experimental: Cell free Mcl-1: Bim Affinity Assay (Mcl-1 HTRF)
# The inhibition of the Mcl-1/Bim interaction was measured using a time-resolved fluorescence resonance energy transfer (TR-FRET) assay. […] A biotinylated peptide derived from human Bim (residues 51-76) was purchased from CPC Scientific (San Jose, CA). The TR-FRET assay was conducted in a 384-well white OptiPlatem (PerkinElmer, Waltham, MA) in a total volume of 40 μL. […] The reaction plates were further incubated overnight and then were read on an Envision® multimode reader (PerkinElmer). […] The IC50 values of test compounds were determined from duplicate data by analyzing competition curves using a four-parameter sigmoidal model in GraphPad Prism (GraphPad Software, San Diego, CA) or in Genedata Screener® (Genedata, Basel, Switzerland).
# T1 sequence (Q07820 171-327): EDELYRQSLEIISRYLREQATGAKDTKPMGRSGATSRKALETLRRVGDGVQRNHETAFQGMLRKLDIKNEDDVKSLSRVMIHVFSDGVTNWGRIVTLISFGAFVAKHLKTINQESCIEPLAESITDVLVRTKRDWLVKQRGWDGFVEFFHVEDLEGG
row,Molecule,IC50 [nM]
1,"CO[C@@H]1/C=C/CCCS(=O)(=O)NC(=O)c2ccc3c(c2)N(C[C@@H]2CC[C@H]21)C[C@@]1(CCCc2cc(Cl)ccc21)CO3 [Example 1091, (1S,3′R,6′R,7′R,8′E)-6-chloro-7′-methoxy-3,4-dihydro-2H,15′H-spiro [naphthalene-1,22′-[20]oxa[13]thia[1,14]diazatetracyclo[14.7.2.0^3,6.0^19,24]pentacosa [8,16,18,24]tetraen]-15′-one 13′,13′-dioxide]",3.69
2,"CCN1CC/C=C\[C@H](O)[C@@H]2CC[C@H]2CN2C[C@@]3(CCCc4cc(Cl)ccc43)COc3ccc(cc32)C(=O)NS1(=O)=O (single isomer, unassigned) [Example 30]",1.92

# Same assay, conditions: cell free Mcl-1:Bim TR-FRET, recombinant human Mcl-1 (171-327)
row,Molecule,IC50 [nM]
1,"O=C1NS(=O)(=O)CCC/C=C/C[C@@H]2CC[C@H]2CN2C[C@@]3(CCCc4cc(Cl)ccc43)COc3ccc1cc32 (single isomer, unassigned) [Example 495]",2.48
2,"C[C@@H]1CCC2=NO[C@H](C2)[C@@H]2CC[C@H]2CN2C[C@@]3(CCCc4cc(Cl)ccc43)COc3ccc(cc32)C(=O)NS1(=O)=O (single isomer, unassigned) [Example 609]",3.84
3,"N-((1S,3′R,6′R,7′S)-6-chloro-13′,13′-dioxido-15′-oxo-3,4-dihydro-2H-spiro[naphthalene-1,22′-[20]oxa[13]thia[1,14]diazatetracyclo[14.7.2.0^3,6.0^19,24]pentacosa [16,18,24]trien]-7′-yl)acetamide or N-((1S,3′R,6′R,7′R)-6-chloro-13′,13′-dioxido-15′-oxo-3,4-dihydro-2H-spiro[naphthalene-1,22′-[20]oxa[13]thia[1,14]diazatetracyclo[14.7.2.0^3,6.0^19,24]pentacosa [16,18,24]trien]-7′-yl)acetamide [Example 934]",2.07
4,"C=C1/C=C/CC[C@@H](CC)S(=O)(=O)NC(=O)c2ccc3c(c2)N(C[C@@H]2CC[C@@H]12)C[C@@]1(CCCc2cc(Cl)ccc21)CO3 [Example 872, (1S,3′R,6′R,8′E,12′R)-6-chloro-12′-ethyl-7′-methylidene-3,4-dihydro-2H,15′H-spiro[naphthalene-1,22′-[20]oxa[13]thia[1,14]diazatetracyclo[14.7.2.0^3,6.0^19,24]pentacosa [8,16,18,24]tetraen]-15′-one 13′,13′-dioxide]",6.36
5,"O=C1NS(=O)(=O)CCCC2(O)CCOC(C2)C2CCC2CN2CC3(CCCc4cc(Cl)ccc43)COc3ccc1cc32 (single isomer, unassigned) [Example 910]",5.8
6,"O=C1NS(=O)(=O)CCC[C@@H]2C[C@H]2[C@H](O)[C@@H]2CC[C@H]2CN2C[C@@]3(CCCc4cc(Cl)ccc43)COc3ccc1cc32 (single isomer, unassigned) [Example 950]",1.49
7,"O=C1NS(=O)(=O)CCCCC[C@@H]2CC[C@H]2CN2C[C@@]3(CCCc4cc(Cl)ccc43)COc3ccc1cc32 [Example 818, (1S,3′R,6′R)-6-chloro-3,4-dihydro-2H,14′H-spiro[naphthalene-1,21′-[19]oxa[12]thia[1,13]diazatetracyclo[13.7.2.0^3,6.0^18,23]tetracosa[15,17,23]trien]-14′-one 12′,12′-dioxide]",13.6
8,"O=C1NS(=O)(=O)CCC=CC(O)C2CCC2CN2CC3(CCCc4cc(Cl)ccc43)COc3ccc1cc32 (mixture of isomers) [Example 776, (1S,3′R,6′R,7′S,8′E)-6-chloro-7′-hydroxy-3,4-dihydro-2H,14′H-spiro[naphthalene-1,21′-[19]oxa[12]thia[1,13]diazatetracyclo [13.7.2.0^3,6.0^18,23]tetracosa[8,15,17,23]tetraen]-14′-one 12′,12′-dioxide and (1S,3′R,6′R,7′S,8′Z)-6-chloro-7′-hydroxy-3,4-dihydro-2H,14′H-spiro[naphthalene-1,21′-[19]oxa[12]thia[1,13]diazatetracyclo[13.7.2.0^3,6.0^18,23]tetracosa[8,15,17,23]tetraen]-14′-one 12′,12′-dioxide]",2.71
9,"COC[C@H]1C/C=C/[C@H](O)[C@@H]2CC[C@H]2CN2C[C@@]3(CCCc4cc(Cl)ccc43)COc3ccc(cc32)C(=O)NS1(=O)=O (single isomer, unassigned) [Example 772]",5.2
